Measurements from US7563781B2, “Triazolopyrimidine derivatives” (Janssen Pharmaceutica NV, priority 2006, dated 2009).
Where two headings read alike, the source gives them in different places.

How the values were obtained:
[1] = target: T1, Focal Adhesion Kinase (full-length Flag-tagged human FAK) (Homo sapiens, UniProt Q05397); assay: in vitro FAK ELISA kinase assay; assay type: biochemical; conditions: read-out: FAK % Inhib ave: 10 uM
T1 construct: a purified recombinant full-length Flag-tagged human FAK protein; Flag; made in house; host or cells: baculovirus infected insect cells
How it was run: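 Plate-coated GST fusion of the 73-residue region around Tyr397 phosphorylated by full-length Flag-tagged human FAK from baculovirus-infected insect cells, with 2 μM ATP in Mg/Mn HEPES pH 7.5, 1 h at 30 °C. Phosphotyrosine detected by HRP-anti-pTyr ELISA with TMB read-out. Compounds screened at 10 μM or titrated from 50 μM in half-log steps for IC50, BSA-substrate background subtracted.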

[2] = target: T2, CAK complex (human Cdk7, human Cyclin H, MAT-1) (Homo sapiens, UniProt P50613); assay: in vitro time-resolved-fluorescence assay for the CAK kinase activity; assay type: biochemical; conditions: compound 20 uM; read-out: CAK % inhib; 20 uM
T2 construct: made in house; host or cells: SF-900 insect cells co-infected with Flag-Cdk7 and Bab-Cyclin H baculoviruses
How it was run: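 Kinase activity of the human CAK complex (Flag-tagged Cdk7, Cyclin H, MAT-1), purified from co-infected SF-900 insect cells by Flag-M2 immunoaffinity, was measured by time-resolved fluorescence. In black glutathione-coated 96-well plates, 500 ng GST-CTD substrate with 22 uM ATP was mixed with compound in 30% DMSO/25 mM Hepes and 250 ng CAK. Plates were incubated 20 minutes at 30° C, then stopped with EDTA, bound overnight and washed. A Europium-labeled antibody detected serine-phosphorylated CTD.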

T1 sequence (Q05397 whole entry): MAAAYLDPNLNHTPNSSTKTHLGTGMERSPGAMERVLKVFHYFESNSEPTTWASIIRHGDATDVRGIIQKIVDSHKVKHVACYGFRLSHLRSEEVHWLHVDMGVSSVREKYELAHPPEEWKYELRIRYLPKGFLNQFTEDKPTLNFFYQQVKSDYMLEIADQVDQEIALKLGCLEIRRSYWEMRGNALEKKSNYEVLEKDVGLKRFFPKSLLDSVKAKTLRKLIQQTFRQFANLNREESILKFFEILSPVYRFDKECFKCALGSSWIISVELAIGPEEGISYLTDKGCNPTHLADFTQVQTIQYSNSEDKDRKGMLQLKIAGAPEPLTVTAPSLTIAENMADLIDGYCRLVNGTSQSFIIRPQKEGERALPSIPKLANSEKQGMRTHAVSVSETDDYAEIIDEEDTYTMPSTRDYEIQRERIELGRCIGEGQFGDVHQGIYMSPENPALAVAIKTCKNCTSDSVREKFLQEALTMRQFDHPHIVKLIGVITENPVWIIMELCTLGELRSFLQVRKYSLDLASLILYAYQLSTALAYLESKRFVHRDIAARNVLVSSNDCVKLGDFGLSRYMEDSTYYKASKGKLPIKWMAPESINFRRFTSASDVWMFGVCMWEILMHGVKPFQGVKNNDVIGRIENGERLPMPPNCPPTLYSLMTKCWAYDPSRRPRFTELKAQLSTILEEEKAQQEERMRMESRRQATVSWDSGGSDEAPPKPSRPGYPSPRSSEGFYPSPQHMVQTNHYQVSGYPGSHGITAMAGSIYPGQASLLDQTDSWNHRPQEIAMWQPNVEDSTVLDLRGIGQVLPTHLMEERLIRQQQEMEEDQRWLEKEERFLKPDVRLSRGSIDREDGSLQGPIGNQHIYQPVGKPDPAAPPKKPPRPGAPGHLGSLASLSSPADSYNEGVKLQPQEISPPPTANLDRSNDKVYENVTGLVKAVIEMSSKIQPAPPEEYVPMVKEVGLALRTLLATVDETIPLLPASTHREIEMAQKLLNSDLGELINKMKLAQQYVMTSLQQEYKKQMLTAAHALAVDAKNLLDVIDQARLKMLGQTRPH
T2 sequence (P50613 with tags, fused parts or gaps): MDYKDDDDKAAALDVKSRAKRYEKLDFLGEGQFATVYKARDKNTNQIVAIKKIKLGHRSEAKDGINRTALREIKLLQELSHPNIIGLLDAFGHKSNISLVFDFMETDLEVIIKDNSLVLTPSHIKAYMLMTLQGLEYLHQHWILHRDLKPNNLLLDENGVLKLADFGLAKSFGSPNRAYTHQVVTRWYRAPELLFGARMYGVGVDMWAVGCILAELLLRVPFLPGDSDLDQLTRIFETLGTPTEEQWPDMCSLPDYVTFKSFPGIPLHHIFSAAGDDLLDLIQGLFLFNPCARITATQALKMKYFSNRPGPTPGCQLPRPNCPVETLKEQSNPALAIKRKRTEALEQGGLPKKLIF
T2 sequence (as listed by the source partner): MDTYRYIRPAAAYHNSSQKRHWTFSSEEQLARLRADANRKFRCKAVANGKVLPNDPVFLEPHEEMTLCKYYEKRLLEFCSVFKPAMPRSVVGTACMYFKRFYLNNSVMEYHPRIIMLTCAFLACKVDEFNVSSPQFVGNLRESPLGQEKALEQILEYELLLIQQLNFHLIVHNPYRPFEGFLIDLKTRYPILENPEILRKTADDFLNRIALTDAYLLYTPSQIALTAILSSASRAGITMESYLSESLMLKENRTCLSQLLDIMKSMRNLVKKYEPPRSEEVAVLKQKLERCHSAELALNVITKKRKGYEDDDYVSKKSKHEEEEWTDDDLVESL

| inhibition at 10 µM ([1]; compound 10 uM, ATP 2 uM) | inhibition at 20 µM [2] | SMILES | inhibition at 10 µM [1] |
| --- | --- | --- | --- |
| 13% | 12.5% | CN(Cc1ccccc1-n1nnc2cnc(Nc3ccc4c(c3)CCC4)nc21)C1CCCCC1 [Compound 20, (3-{2-[(Cyclohexyl-methyl-amino)-methyl]-phenyl}-3H-[1,2,3]triazolo[4,5-d]pyrimidin-5-yl)-indan-5-yl-amine] |  |
| 76.8% | 42.2% | CN(C)CC(O)COc1ccc(Nc2ncc3nnn(-c4ccc5ncsc5c4)c3n2)cc1 (stereo not shown) [Compound 14, 1-[4-(3-Benzothiazol-6-yl-3H-[1,2,3]triazolo[4,5-d]pyrimidin-5-ylamino)-phenoxy]-3-dimethylamino-propan-2-ol] |  |
| 47.8% | 9.49% | c1cc(Nc2ncc3nnn(-c4cccc(-c5cnco5)c4)c3n2)cc(-c2cnco2)c1 [Compound 85, (3-Oxazol-5-yl-phenyl)-[3-(3-oxazol-5-yl-phenyl)-3H-[1,2,3]triazolo[4,5-d]pyrimidin-5-yl]-amine] |  |
| 72% | 89% | CN1CCN(CCCNC(=O)c2ccc(Nc3ncc4nnn(-c5ccc6c(c5)CCC6)c4n3)cc2)CC1 [Compound 78, 4-(3-Indan-5-yl-3H-[1,2,3]triazolo[4,5-d]pyrimidin-5-ylamino)-N-[3-(4-methyl-piperazin-1-yl)-propyl]-benzamide] |  |
| 33.9% | 17.9% | O=C(NCCCN1CCCC1=O)c1cccc(Nc2ncc3nnn(-c4ccc5c(c4)CCC5)c3n2)c1 [Compound 80, 3-(3-Indan-5-yl-3H-[1,2,3]triazolo[4,5-d]pyrimidin-5-ylamino)-N-[3-(2-oxo-pyrrolidin-1-yl)-propyl]-benzamide] |  |
| 30% | 38.6% | CN(C)CC(O)COc1ccc(Nc2ncc3nnn(C4CCC(C(=O)O)CC4)c3n2)cc1 (stereo not shown) [Compound 30, 4-{5-[4-(3-Dimethylamino-2-hydroxy-propoxy)-phenylamino]-[1,2,3]triazolo[4,5-d]pyrimidin-3-yl}-cyclohexane-carboxylic acid] |  |
| 50.5% | 83.1% | CN(C)CC(O)COc1ccc(Nc2ncc3nnn(-c4ccc(N5CCOCC5)cc4)c3n2)cc1 (stereo not shown) [Compound 16, 1-Dimethylamino-3-{4-[3-(4-morpholin-4-yl-phenyl)-3H-[1,2,3]triazolo[4,5-d]pyrimidin-5-ylamino]-phenoxy}-propan-2-ol] |  |
| 48.4% | 31.7% | CCCCNS(=O)(=O)c1cccc(-n2nnc3cnc(Nc4ccc(N5CCN(Cc6ccccc6)CC5)cc4)nc32)c1 [Compound 50, 3-{5-[4-(4-Benzyl-piperazin-1-yl)-phenylamino]-[1,2,3]triazolo[4,5-d]pyrimidin-3-yl]-N-butyl-benzene-sulfonamide] |  |
| 66.7% | 45.3% | CCN(CC)CCNC(=O)c1ccc(Nc2ncc3nnn(-c4cccc(-c5nnn[nH]5)c4)c3n2)cc1 [Compound 62, N-(2-Diethylamino-ethyl)-4-{3-[3-(1H-tetrazol-5-yl)-phenyl]-3H-[1,2,3]triazolo[4,5-d]pyrimidin-5-ylamino}-benzamide] |  |
| 24.4% | 72.6% | CN(C)CC(O)COc1ccc(Nc2ncc3nnn(-c4ccc5ncccc5c4)c3n2)cc1 (stereo not shown) [Compound 13, 1-Dimethylamino-3-[4-(3-quinolin-6-yl-3H-[1,2,3]triazolo[4,5-d]pyrimidin-5-ylamino)-phenoxy]-propan-2-ol] |  |
| 22% | 34.1% | CCCCNS(=O)(=O)c1cccc(Nc2ncc3nnn(Cc4ccccc4)c3n2)c1 [Compound 57] |  |
| -5% | 38.7% | CN(C)c1ccc(/C=C/c2ccc(Nc3ncc4nnn(-c5ccc6c(c5)CCC6)c4n3)cc2)cc1 [Compound 7, {4-[2-(4-Dimethylamino-phenyl)-vinyl]-phenyl}-(3-indan-5-yl-3H-[1,2,3]triazolo[4,5-d]pyrimidin-5-yl)-amine] |  |
| -1.2% | 2.3% | Cc1nccc(-c2cccc(-n3nnc4cnc(Nc5ccc(-c6csnn6)cc5)nc43)c2)n1 [Compound 36, {3-[3-(2-Methyl-pyrimidin-4-yl)-phenyl]-3H-[1,2,3]triazolo[4,5-d]pyrimidin-5-yl}-(4-[1,2,3]thiadiazol-4-yl-phenyl)-amine] |  |
| 72.8% | 42.7% | O=C(NCCCn1ccnc1)c1ccc(Nc2ncc3nnn(-c4ccc5c(c4)CCC5)c3n2)cc1 [Compound 74, N-(3-Imidazol-1-yl-propyl)-4-(3-indan-5-yl-3H-[1,2,3]triazolo[4,5-d]pyrimidin-5-ylamino)-benzamide] |  |
| 23% | 85.9% | CN(C)CC(O)COc1ccc(Nc2ncc3nnn(C4CCCCC4)c3n2)cc1 (stereo not shown) [Compound 9, 1-[4-(3-Cyclohexyl-3H-[1,2,3]triazolo[4,5-d]pyrimidin-5-ylamino)-phenoxy]-3-dimethylamino-propan-2-ol] |  |
| 27.5% | 52.8% | CCN(CC)CCNC(=O)c1ccc(Nc2ncc3nnn(Cc4nc5ccccc5[nH]4)c3n2)cc1 [Compound 71, 4-[3-(1H-Benzoimidazol-2-ylmethyl)-3H-[1,2,3]triazolo[4,5-d]pyrimidin-5-ylamino]-N-(2-diethylamino-ethyl)-benzamide] |  |
| 35.6% | 3.4% | COc1cc(Nc2ncc3nnn(-c4cc(OC)c(OC)c(OC)c4)c3n2)cc(OC)c1OC [Compound 42, (3,4,5-Trimethoxy-phenyl)-[3-(3,4,5-trimethoxy-phenyl)-3H-[1,2,3]triazolo[4,5-d]pyrimidin-5-yl]-amine] |  |
| 90.8% | 101% | OC1CCN(CCCOc2ccc(Nc3ncc4nnn(-c5ccc6c(c5)CCC6)c4n3)cc2)C1 (stereo not shown) [Compound 93, 1-{3-[4-(3-Indan-5-yl-3H-[1,2,3]triazolo[4,5-d]pyrimidin-5-ylamino)-phenoxy]-propyl}-pyrrolidin-3-ol] |  |
| 74.4% | 21.4% | CNC(=O)c1cccc(Nc2ncc3nnn(-c4ccc5c(c4)CCC5)c3n2)c1 [Compound 27, 3-(3-Indan-5-yl-3H-[1,2,3]triazolo[4,5-d]pyrimidin-5-ylamino)-N-methyl-benzamide] |  |
| 63.6% | 51.3% | NS(=O)(=O)c1cccc(Nc2ncc3nnn(-c4cccc(S(N)(=O)=O)c4)c3n2)c1 [Compound 47] |  |
| 81.5% | 98.4% | O=C(NCCCN1CCCC1)c1cccc(Nc2ncc3nnn(-c4ccc5c(c4)CCC5)c3n2)c1 [Compound 72, 3-(3-Indan-5-yl-3H-[1,2,3]triazolo[4,5-d]pyrimidin-5-ylamino)-N-(3-pyrrolidin-1-yl-propyl)-benzamide] |  |
| 60.5% | 43.7% | CCN(CC)CCNC(=O)c1ccc(-n2nnc3cnc(Nc4ccc(N5CCN(Cc6ccccc6)CC5)cc4)nc32)cc1 [Compound 53, 4-{5-[4-(4-Benzyl-piperazin-1-yl)-phenylamino]-[1,2,3]triazolo[4,5-d]pyrimidin-3-yl}-N-(2-diethylamino-ethyl)-benzamide] |  |
| 59% | 58% | CCN(CC)CCNC(=O)c1ccc(Nc2ncc3nnn(Cc4ccccc4)c3n2)cc1 [Compound 58, 4-(3-Benzyl-3H-[1,2,3]triazolo[4,5-d]pyrimidin-5-ylamino)-N-(2-diethylamino-ethyl)-benzamide] |  |
| 12.2% | 20.7% | CN(Cc1ccccc1Nc1ncc2nnn(-c3ccc4c(c3)CCC4)c2n1)C1CCCCC1 [Compound 18, {2-[(Cyclohexyl-methyl-amino)-methyl]-phenyl}-(3-indan-5-yl-3H-[1,2,3]triazolo[4,5-d]pyrimidin-5-yl)-amine] |  |
| 25% | 47% | c1ccc(CN2CCN(c3ccc(Nc4ncc5nnn(Cc6ccccc6)c5n4)cc3)CC2)cc1 [Compound 59, [4-(4-Benzyl-piperazin-1-yl)-phenyl]-(3-benzyl-3H-[1,2,3]triazolo[4,5-d]pyrimidin-5-yl)-amine] |  |
| 10.4% | 48.7% | c1cc(OCCCN2CCOCC2)ccc1Nc1ncc2nnn(-c3ccc4c(c3)CCC4)c2n1 [Compound 91, (3-Indan-5-yl-3H-[1,2,3]triazolo[4,5-d]pyrimidin-5-yl)-[4-(3-morpholin-4-yl-propoxy)-phenyl]-amine] |  |
| 47.9% | -19.1% | CCN(CC)CCNC(=O)c1ccc(Nc2ncc3nnn(-c4ccc(C(=O)NCCN(CC)CC)cc4)c3n2)cc1 [Compound 52] |  |
| 3.4% | 27.2% | c1ccc(-c2cccc(Nc3ncc4nnn(-c5ccc(-c6csnn6)cc5)c4n3)c2)cc1 [Compound 38, Biphenyl-3-yl-[3-(4-[1,2,3]thiadiazol-4-yl-phenyl)-3H-[1,2,3]triazolo[4,5-d]pyrimidin-5-yl]-amine] |  |

| SMILES | inhibition at 10 µM ([1]; compound 10 uM, ATP 2 uM) | inhibition at 20 µM [2] | inhibition at 10 µM [1] |
| --- | --- | --- | --- |
| CCOP(=O)(Cc1ccc(Nc2ncc3nnn(-c4ccc5c(c4)CCC5)c3n2)cc1)OCC [Compound 24, [4-(3-Indan-5-yl-3H-[1,2,3]triazolo[4,5-d]pyrimidin-5-ylamino)-benzyl]-phosphonic acid diethyl ester] |  | 24.7% | 34% |
